Read-outs that look alike come from different tables or passages of the source.
System: HCV replicon
Assay: microbe, parasite or virus in culture
Assay type: cell-based
Conditions: read-out: Replicon IC5Os
[1] = Replicon IC50 values are determined by firefly luciferase signal, bicistronic replicon, 2 days

## CCn1c(-c2ccc(NC(=O)CCl)cc2)c(C#N)c2ccc(C(F)(F)F)cc21 [Compound 421]
[1]
  IC50: > 2000 nM

## CCn1c(-c2ccc(NC(=O)c3ccccc3)cc2)c(C#N)c2ccc(C(F)(F)F)cc21 [Compound 423]
[1]
  IC50: > 2000 nM

## CCn1c(-c2ccc(NC(=O)N3CCOCC3)cc2)c(C#N)c2ccc(C(F)(F)F)cc21 [Compound 424]
[1]
  IC50: > 2000 nM

## CCn1c(-c2ccc(NC(=O)C3CC3)cc2)c(C#N)c2ccc(C(F)(F)F)cc21 [Compound 425]
[1]
  IC50: 500 to 2000 nM

## CCn1c(-c2ccc3ccccc3c2)c(C#N)c2ccc(OC)cc21 [Compound 426]
[1]
  IC50: 500 to 2000 nM

## CCn1c(-c2ccc3c(ccn3C)c2)c(C#N)c2ccc(OC)cc21 [Compound 427]
[1]
  IC50: 500 to 2000 nM

## CCn1c(-c2cccc(N)c2)c(C#N)c2cc(Cl)ccc21 [Compound 431]
[1]
  IC50: > 2000 nM

## CCNC(=O)c1ccc(-c2c(C#N)c3ccccc3n2CC)cc1 [Compound 432]
[1]
  IC50: > 2000 nM

## CCn1c(-c2ccc(C(=O)NC3CC3)cc2)c(C#N)c2ccccc21 [Compound 433]
[1]
  IC50: > 2000 nM

## CCOC(=O)Nc1cccc(-c2c(C#N)c3cc(Cl)ccc3n2CC)c1 [Compound 434]
[1]
  IC50: > 2000 nM

## CCn1c(-c2ccc(S(N)(=O)=O)cc2)c(C#N)c2cc(F)ccc21 [Compound 437]
[1]
  IC50: > 2000 nM

## CCn1c(-c2ccc(S(=O)(=O)NC)cc2)c(C#N)c2cc(F)ccc21 [Compound 438]
[1]
  IC50: > 2000 nM

## CCn1c(-c2ccc(NS(C)(=O)=O)cc2)c(C#N)c2cc(F)ccc21 [Compound 439]
[1]
  IC50: 500 to 2000 nM

## CCn1c(-c2ccc(NS(=O)(=O)CC)cc2)c(C#N)c2cc(F)ccc21 [Compound 440]
[1]
  IC50: 500 to 2000 nM

## CCOC(=O)Nc1cccc(-c2c(C#N)c3ccc(OCCCn4cncn4)cc3n2CC)c1 [Compound 441]
[1]
  IC50: 500 to 2000 nM

## CCn1c(-c2ccc(NC(=O)NCCCCl)cc2)c(C#N)c2ccc(OC)cc21 [Compound 443]
[1]
  IC50: > 2000 nM

## CCn1c(-c2ccc(NC(=O)NCCc3ccccc3)cc2)c(C#N)c2ccc(OC)cc21 [Compound 444]
[1]
  IC50: > 2000 nM

## CCn1c(-c2ccc(NC(=O)Nc3ccc(C(C)C)cc3)cc2)c(C#N)c2ccc(OC)cc21 [Compound 445]
Hepatitis C virus, 48 h
  IC50: 500 to 2000 nM

## CCn1c(-c2ccc(NC(=O)Nc3ccc(Oc4ccccc4)cc3)cc2)c(C#N)c2ccc(OC)cc21 [Compound 446]
[1]
  IC50: > 2000 nM

## CCOC(=O)Nc1cccc(-c2c(C#N)c3ccc(OCCCCl)cc3n2CC)c1 [Compound 447]
Hepatitis C virus, 48 h
  IC50: < 500 nM

## CCn1c(-c2ccc(NS(=O)(=O)c3cn(C)cn3)cc2)c(C#N)c2ccc(OC)cc21 [Compound 448]
[1]
  IC50: > 2000 nM

## CCn1c(-c2ccc(NS(=O)(=O)c3ccc(N4CCOCC4)nc3)cc2)c(C#N)c2ccc(OC)cc21 [Compound 449]
[1]
  IC50: > 2000 nM

## CCOC(=O)Nc1ccc(-c2c(C#N)c3ccc(C(F)(F)F)cc3n2CC)cc1 [Compound 450]
[1]
  IC50: 500 to 2000 nM

## CCn1c(-c2ccc(NS(=O)(=O)c3cccs3)cc2)c(C#N)c2ccc(OC)cc21 [Compound 451]
[1]
  IC50: > 2000 nM

## CCn1c(-c2ccc(NS(=O)(=O)c3cccc4cccnc34)cc2)c(C#N)c2ccc(OC)cc21 [Compound 452]
[1]
  IC50: > 2000 nM

## CCCOC(=O)Nc1ccc(-c2c(C#N)c3ccc(C(F)(F)F)cc3n2CC)cc1 [Compound 453]
[1]
  IC50: 500 to 2000 nM

## CCn1c(-c2ccc(NC(=O)OCc3ccccc3)cc2)c(C#N)c2ccc(C(F)(F)F)cc21 [Compound 457]
[1]
  IC50: 500 to 2000 nM

## CCn1c(-c2ccc(N)cc2)c(C#N)c2cc(-c3cccc(OC)c3)ccc21 [Compound 459]
[1]
  IC50: 500 to 2000 nM

## CCn1c(-c2cccc(N)c2)c(C#N)c2cc(-c3cccc(OC)c3)ccc21 [Compound 460]
[1]
  IC50: 500 to 2000 nM

## CCOc1ccc2cc(-c3ccc(NS(=O)(=O)CC)cc3)n(CC(C)C)c2c1 [Compound 465]
[1]
  IC50: > 2000 nM

## CCOc1ccc2cc(-c3ccc(NS(C)(=O)=O)cc3)n(C3CCC3)c2c1 [Compound 466]
[1]
  IC50: 500 to 2000 nM

## CCOc1ccc2cc(-c3ccc(NS(=O)(=O)CC)cc3)n(C3CCC3)c2c1 [Compound 467]
[1]
  IC50: 500 to 2000 nM

## CCS(=O)(=O)Nc1ccc(-c2c(C#N)c3ccc(OC)cc3n2C(C)C)cc1 [Compound 468]
[1]
  IC50: < 500 nM
